Source: paper PMC12794062, “Repositioning a Human Kinase Platelet-Derived Growth Factor Receptor Alpha Type II Inhibitor for Malaria and Inhibition of Hemozoin Formation” (ACS Medicinal Chemistry Letters, 2025)
Where “and” joins values, the source holds several entries; their conditions need not be identical. Identical values can stand only once.

Test system: P. falciparum Dd2
Assay: In vitro asexual blood stage antiplasmodium activity (pLDH assay), multidrug-resistant Dd2 strain
Conditions: Plasmodium falciparum, DD2, read-out: Pf IC50 ± SD Dd2, asexual blood stage; mean ± SD, n ≥ 2 independent experiments

Compared with `Nc1ncccc1/C=C/c1cncc(C(=O)NCCc2ccc(Cl)cc2Cl)c1` [Compound 7], `Nc1ccncc1/C=C/c1cncc(C(=O)NCCc2ccc(Cl)cc2Cl)c1` [Compound 12] is 5.9-fold lower in IC50: 5470 ± 540 nM for the first, 920 ± 50 nM for the second. The second is the more potent here.

`Nc1ccc(/C=C/c2cncc(C(=O)NCCc3ccc(Cl)cc3Cl)c2)cn1` [Compound 8] and `Nc1ncncc1/C=C/c1cncc(C(=O)NCCc2ccc(Cl)cc2Cl)c1` [Compound 13] are within error of each other in IC50: 2210 ± 1160 nM for the first, 1400 ± 50 nM for the second.

`Cc1cnc(N)c(/C=C/c2cncc(C(=O)NCCc3ccccc3)c2)c1` [Compound 19] and `Cc1cnc(N)c(/C=C/c2cncc(C(=O)NCc3ccc(Cl)cc3Cl)c2)c1` [Compound 20] cannot be ordered by IC50: less than 1000 nM for the first, 190 ± 110 nM for the second.

First: Cc1cnc(N)c(/C=C/c2cncc(C(=O)Nc3ccc(Cl)cc3Cl)c2)c1 [Compound 22]
Second: Cc1cnc(N)c(/C=C/c2cncc(C(=O)Nc3ccc(Cl)cc3)c2)c1 [Compound 23]
The IC50 of the first is 1.8-fold higher: 350 ± 50 nM for the first, 190 nM for the second. The second is the more potent here.

`Cc1cnc(N)c(/C=C/c2cccc(C(=O)NCCc3ccc(Cl)cc3Cl)n2)c1` [Compound 26] and `Cc1cnc(N)c(/C=C/c2cscc2C(=O)NCCc2ccc(Cl)cc2Cl)c1` [Compound 28] are within 1.5-fold of each other in IC50: 3190 ± 380 nM for the first, 2360 ± 400 nM for the second.

Test system: P. falciparum NF54
Assay: In vitro asexual blood stage antiplasmodium activity (pLDH assay), drug sensitive NF54 strain
Conditions: Plasmodium falciparum, NF54, read-out: Pf IC50 ± SD NF54, asexual blood stage; mean ± SD, n ≥ 2 independent experiments

`Cc1cnc(N)c(/C=C/c2cncc(C(=O)NCCc3ccc(Cl)cc3Cl)c2)c1` [Compound 4] and `Cc1cnc(N)c(/C=C/c2cncc(C(=O)NCc3ccc(Cl)cc3Cl)c2)c1` [Compound 20] are within error of each other in IC50: 220 ± 30 nM for the first, 160 ± 70 nM for the second.

Compared with `Cc1ccc(N)c(/C=C/c2cncc(C(=O)NCCc3ccc(Cl)cc3Cl)c2)c1` [Compound 5], `Nc1ccncc1/C=C/c1cncc(C(=O)NCCc2ccc(Cl)cc2Cl)c1` [Compound 12] is 19-fold lower in IC50: 2600 ± 1470 nM for the first, 140 nM for the second. The second is the more potent here.

First: Cc1cncc(/C=C/c2cncc(C(=O)NCCc3ccc(Cl)cc3Cl)c2)c1 [Compound 6]
Second: Nc1cncc(/C=C/c2cncc(C(=O)NCCc3ccc(Cl)cc3Cl)c2)c1 [Compound 9]
The IC50 of the first is 2.5-fold higher: 1180 ± 380 nM for the first, 480 ± 260 nM for the second. The second is the more potent here.

`Nc1ncccc1/C=C/c1cncc(C(=O)NCCc2ccc(Cl)cc2Cl)c1` [Compound 7] and `Nc1ncncc1/C=C/c1cncc(C(=O)NCCc2ccc(Cl)cc2Cl)c1` [Compound 13] are within error of each other in IC50: 340 ± 240 nM for the first, 480 ± 350 nM for the second.

`Nc1ccc(/C=C/c2cncc(C(=O)NCCc3ccc(Cl)cc3Cl)c2)cn1` [Compound 8] and `O=C(NCCc1ccc(Cl)cc1Cl)c1cncc(/C=C/c2cccnc2)c1` [Compound 10] are within error of each other in IC50: 510 ± 420 nM for the first, 2630 ± 2270 nM for the second.

First: O=C(NCCc1ccc(Cl)cc1Cl)c1cncc(/C=C/c2ccccc2)c1 [Compound 11]
Second: Cc1cnc(N)c(/C=C/c2cccc(C(=O)NCCc3ccc(Cl)cc3Cl)c2)c1 [Compound 27]
The IC50 of the first is 6.9-fold higher: 4280 nM for the first, 620 ± 70 nM for the second. The second is the more potent here.

First: Cc1cnc(N)c(/C=C/c2cncc(C(=O)NCCc3ccccc3)c2)c1 [Compound 19]
Second: Cc1cnc(N)c(/C=C/c2cncc(C(=O)NCCc3ccncc3)c2)c1 [Compound 24]
The IC50 of the first is 6.4-fold lower: 320 ± 60 nM for the first, 2060 ± 690 nM for the second. The first is the more potent here.

Compared with `Cc1cnc(N)c(/C=C/c2cncc(C(=O)NCc3cc(Cl)cc(Cl)c3)c2)c1` [Compound 21], `Cc1cnc(N)c(/C=C/c2cncc(C(=O)Nc3ccc(Cl)cc3Cl)c2)c1` [Compound 22] is 2.2-fold higher in IC50: 90 nM for the first, 200 ± 60 nM for the second. The first is the more potent here.

Going from `Cc1cnc(N)c(/C=C/c2cncc(C(=O)Nc3ccc(Cl)cc3)c2)c1` [Compound 23] to `Cc1cnc(N)c(/C=C/c2cncc(C(=O)NCCC3CCNCC3)c2)c1` [Compound 25], the IC50 rises from 140 ± 20 nM to greater than 6000 nM. The first is the more potent here.

`Cc1cnc(N)c(/C=C/c2cccc(C(=O)NCCc3ccc(Cl)cc3Cl)n2)c1` [Compound 26] and `Cc1cnc(N)c(/C=C/c2cscc2C(=O)NCCc2ccc(Cl)cc2Cl)c1` [Compound 28] are within error of each other in IC50: 780 ± 30 nM for the first, 590 ± 350 nM for the second.

Same assay, conditions: read-out: Pf IC50 ± SD NF54; asexual blood stage; mean ± SD, n ≥ 2 independent experiments

Compound `O=C(NCCc1ccc(Cl)cc1Cl)c1cncc(/C=C/c2ccccc2)c1` [Compound 11] has an IC50 of 4820 ± 1550 nM.

Test system: not listed separately
Assay: In vitro microsomal metabolic stability, rat
Type: in vitro ADME
Conditions: male, Sprague Dawley, rat liver microsomes, pH 7.4, read-out: CLint,app (r)

`Cc1cnc(N)c(/C=C/c2cncc(C(=O)Nc3ccc(Cl)cc3)c2)c1` [Compound 23] gave a CLint scaled at 1 µM of 62 mL/min/kg.

Test system: not listed separately
Assay: Solubility, miniaturised shake flask method, HPLC-DAD
Type: physicochemical
Conditions: aqueous solution, 25 °C, aqueous buffer, thermodynamic from solid; pH 6.5; footnote: thermodynamic solubility, title and text: kinetic

In the case of `Cc1cnc(N)c(/C=C/c2cncc(C(=O)Nc3ccc(Cl)cc3)c2)c1` [Compound 23], the solubility thermodynamic at 20 h is reported as less than 5 µM.

Test system: β-hematin formation
Assay: Cell-free β-hematin inhibition assay (NP-40 detergent-based)
Type: biochemical
Conditions: 2 independent experiments, read-out: βH IC50 ± SD

`Cc1cnc(N)c(/C=C/c2cncc(C(=O)NCCc3ccc(Cl)cc3Cl)c2)c1` [Compound 4] and `Cc1ccc(N)c(/C=C/c2cncc(C(=O)NCCc3ccc(Cl)cc3Cl)c2)c1` [Compound 5] are within 1.5-fold of each other in IC50: 13000 ± 2000 nM for the first, 18400 ± 200 nM for the second.

First: Cc1cncc(/C=C/c2cncc(C(=O)NCCc3ccc(Cl)cc3Cl)c2)c1 [Compound 6]
Second: O=C(NCCc1ccc(Cl)cc1Cl)c1cncc(/C=C/c2cccnc2)c1 [Compound 10]
The IC50 of the first is 1.6-fold higher: 26000 ± 7000 nM for the first, 15900 ± 100 nM for the second. The second is the more potent here.

`Nc1ncccc1/C=C/c1cncc(C(=O)NCCc2ccc(Cl)cc2Cl)c1` [Compound 7] and `O=C(NCCc1ccc(Cl)cc1Cl)c1cncc(/C=C/c2ccccc2)c1` [Compound 11] are within 1.5-fold of each other in IC50: 17900 ± 200 nM for the first, 22000 ± 2000 nM for the second.

First: Cc1cnc(N)c(/C=C/c2cncc(C(=O)NCCc3ccc(Cl)cc3)c2)c1 [Compound 18]
Second: Cc1cnc(N)c(/C=C/c2cncc(C(=O)NCCc3ccncc3)c2)c1 [Compound 24]
The IC50 of the first is 4.1-fold lower: 15000 ± 2000 nM for the first, 62000 ± 5000 nM for the second.

Going from `Cc1cnc(N)c(/C=C/c2cncc(C(=O)NCCC3CCNCC3)c2)c1` [Compound 25] to `Cc1cnc(N)c(/C=C/c2cccc(C(=O)NCCc3ccc(Cl)cc3Cl)c2)c1` [Compound 27], the IC50 falls from 232000 ± 27000 nM to 13000 ± 4000 nM (18-fold). The second is the more potent here.

`Cc1cnc(N)c(/C=C/c2cccc(C(=O)NCCc3ccc(Cl)cc3Cl)n2)c1` [Compound 26] and `Cc1cnc(N)c(/C=C/c2cscc2C(=O)NCCc2ccc(Cl)cc2Cl)c1` [Compound 28] are within error of each other in IC50: 27000 ± 7000 nM for the first, 18000 ± 7000 nM for the second.

For `Cc1cnc(N)c(/C=C/c2cncc(C(=O)NCc3cc(Cl)cc(Cl)c3)c2)c1` [Compound 21], the IC50 was < 10000 nM and 5000 nM.
For `Cc1cnc(N)c(/C=C/c2cncc(C(=O)Nc3ccc(Cl)cc3Cl)c2)c1` [Compound 22], the IC50 was < 10000 nM and 8000 nM.

Test system: not listed separately
Assay: In vitro microsomal metabolic stability, human
Type: in vitro ADME
Conditions: both sexes, human liver microsomes, pH 7.4, read-out: CLint,app (h)

For `Cc1cnc(N)c(/C=C/c2cncc(C(=O)Nc3ccc(Cl)cc3)c2)c1` [Compound 23], the CLint scaled at 1 µM was 64 mL/min/kg.

Test system: heme species (free heme, hemozoin) in NF54 parasites
Assay: Cellular heme fractionation assay
Type: cell-based, Plasmodium falciparum
Conditions: 0.5× to 3× IC50, NF54 parasites

In the case of `Cc1cnc(N)c(/C=C/c2cncc(C(=O)NCCc3ccc(Cl)cc3Cl)c2)c1` [Compound 4], the “free heme, dose response” value is reported as “dose-dependent increase in free heme”.

In the case of `Cc1cnc(N)c(/C=C/c2cncc(C(=O)NCCc3ccc(Cl)cc3Cl)c2)c1` [Compound 4], the “hemozoin, dose response” value is reported as “decrease in hemozoin”.

Test system: not listed separately
Assay: In vitro microsomal metabolic stability, mouse
Type: in vitro ADME
Conditions: male, CD1, mouse, mouse liver microsomes, pH 7.4; read-out: CLint,app (m)

Compound `Cc1cnc(N)c(/C=C/c2cncc(C(=O)Nc3ccc(Cl)cc3)c2)c1` [Compound 23] has a CLint scaled at 1 µM of 153 mL/min/kg.

Test system: Chinese Hamster Ovarian (CHO) cells
Assay: In vitro cytotoxicity, MTT assay
Conditions: CHO IC50/PfNF54 IC50

For `Cc1cnc(N)c(/C=C/c2cncc(C(=O)Nc3ccc(Cl)cc3)c2)c1` [Compound 23], the “selectivity index [SI]” value was 150.

Test system: not listed separately
Assay: In vitro cytotoxicity, MTT assay
Conditions: Chinese hamster, Chinese Hamster Ovarian (CHO) cells

`Cc1cnc(N)c(/C=C/c2cncc(C(=O)Nc3ccc(Cl)cc3)c2)c1` [Compound 23] gave an IC50 of 21000 nM.

Test system: P. falciparum K1
Assay: In vitro asexual blood stage antiplasmodium activity (pLDH assay), multidrug-resistant K1 strain
Conditions: Plasmodium falciparum, K1, read-out: Pf IC50 ± SD K1, asexual blood stage; mean ± SD, n ≥ 2 independent experiments

Compared with `Cc1cnc(N)c(/C=C/c2cncc(C(=O)NCCc3ccc(Cl)cc3Cl)c2)c1` [Compound 4], `Cc1cnc(N)c(/C=C/c2cncc(C(=O)NCc3ccc(Cl)cc3Cl)c2)c1` [Compound 20] is 2.4-fold lower in IC50: 590 ± 40 nM for the first, 250 ± 120 nM for the second. The second is the more potent here.

Compared with `Nc1ncccc1/C=C/c1cncc(C(=O)NCCc2ccc(Cl)cc2Cl)c1` [Compound 7], `Nc1cncc(/C=C/c2cncc(C(=O)NCCc3ccc(Cl)cc3Cl)c2)c1` [Compound 9] is higher in IC50: 960 ± 390 nM for the first, greater than 6000 nM for the second. The first is the more potent here.

`Cc1cnc(N)c(/C=C/c2cncc(C(=O)NCCc3ccc(Cl)cc3)c2)c1` [Compound 18] and `Cc1cnc(N)c(/C=C/c2cncc(C(=O)NCCc3ccccc3)c2)c1` [Compound 19] cannot be ordered by IC50: less than 1000 nM for the first, less than 1000 nM for the second.

Compared with `Cc1cnc(N)c(/C=C/c2cncc(C(=O)NCc3cc(Cl)cc(Cl)c3)c2)c1` [Compound 21], `Cc1cnc(N)c(/C=C/c2cccc(C(=O)NCCc3ccc(Cl)cc3Cl)c2)c1` [Compound 27] is 3.6-fold higher in IC50: 460 ± 170 nM for the first, 1650 ± 270 nM for the second.

Same assay, conditions: read-out: Pf IC50 ± SD K1; asexual blood stage; mean ± SD, n ≥ 2 independent experiments

`Cc1cnc(N)c(/C=C/c2cncc(C(=O)NCCc3ccc(Cl)cc3)c2)c1` [Compound 18] and `Cc1cnc(N)c(/C=C/c2cncc(C(=O)NCCc3ccccc3)c2)c1` [Compound 19] are within error of each other in IC50: 720 ± 430 nM for the first, 580 ± 160 nM for the second.
